Assay results reported in US20260364184A1, “COMPOUND BASED ON OXOISOINDOLINYL-SUBSTITUTED TETRAHYDROPYRIMIDINE-DIONE AND USE THEREOF” (GLUETACS THERAPEUTICS (SHANGHAI) CO., LTD., priority 2023, published 2026).
Where two headings read alike, the source gives them in different places.

What was measured:
Format in all cases: cell-based
[1] = test system: Human acute lymphocytic leukemia T lymphocytes cell line (CCRF-CEM); assay: Inhibition of CCRF-CEM cell proliferation (CellTiter luminescent viability); conditions: Homo sapiens, 96 h; for inhibition at 0.01 µM: 10 nM, read-out: Inhibition Rate at 10 nM (%); for inhibition at 0.5 µM: 500 nM, read-out: Inhibition Rate at 500 nM (%)
Experimental: (§1) The tumor cells used herein were cultured in a cell culture medium listed in table 3 at 37 °C in an incubator with 5% CO2. Prior to experimentation, all cell lines used were correctly identified by STR profiling, and tested negative for mycoplasma contamination using a mycoplasma detection kit through routine screenings.
(§2) The IC50 values of the compounds of the present disclosure (including the compounds in Table 1, Table 2, and Examples 1-468) were determined using the CellTiter-Meiluncell Luminescent Cell Viability Assay Kit from Dalian Meilun Biotech Co., Ltd. The detailed procedure is as follows: Tumor cells were seeded in 96-well cell culture plates at the densities specified in Table 4. On the following day, the test compounds of the present disclosure were subjected to serial dilution. The dilution can be performed according to one of the following two methods: • (1) The first dilution method: The test compounds of the present disclosure (including the compounds in Table 1, Table 2, and Examples 1-468) were subjected to 5-fold serial dilutions starting from a highest concentration of 2000 μM, resulting in a total of 9 concentrations from high to low (2000, 400, 80, 16, 3.2, 0.64, 0.128, 0.0256, 0.00512 μM). Subsequently, 0.5 μL of the test compound dilution was transferred into the 96-well plate containing the cells, with each well containing 100 μL of cell culture medium. […] Into the 96-well plate, the diluted test compounds and corresponding detection reagents were added, resulting in final test compound concentrations of 500 nM and 10 nM, respectively. The experimental procedure is described below using the diluted 2 μM test compound as an example.
(§3) 0.5 μL of the aforementioned diluted compound of the present disclosure (including the compounds in Table 1, Table 2, and Examples 1-468) was added to the seeded cells in 100 μL of medium, yielding a final test compound concentration of 10 nM. After the cells were treated with the compounds of the present disclosure for a specified period, the cell viability assay reagent was added to the culture medium according to the kit's instructions to determine cell viability. […] All controls were treated using the same procedure as the compounds of the present disclosure. The growth inhibition curves for the compounds of the present disclosure were plotted using Prism GraphPad software, and the IC50 values were calculated therefrom.

[2] = test system: Human myeloid monocytic leukemia cell line (MV-4-11); assay: Inhibition of MV-4-11 cell proliferation (CellTiter luminescent viability); conditions: Homo sapiens, MV4-11, 96 hours; for inhibition at 0.01 µM: MV-4-11, 10 nM, read-out: Inhibition Rate at 10 nM (%); for inhibition at 0.5 µM: MV-4-11, 500 nM, read-out: Inhibition Rate at 500 nM (%)
Experimental: as §1, §2, §3

[3] = test system: Human Multiple myeloma cell line (MM.1S); assay: Inhibition of MM.1S cell proliferation (CellTiter luminescent viability); conditions: Homo sapiens, MM1.S, 96 hours; for inhibition at 0.01 µM: 10 nM, read-out: Inhibition Rate at 10 nM (%); for inhibition at 0.5 µM: 500 nM, read-out: Inhibition Rate at 500 nM (%)
Experimental: as §1, §2, §3

[4] = test system: Human Acute T Lymphoblastic Leukemia Cells (Molt-4); assay: Inhibition of Molt-4 cell proliferation (CellTiter luminescent viability); conditions: Homo sapiens, MOLT-4, Molt-4; for inhibition at 0.01 µM: 10 nM, read-out: Inhibition Rate at 10 nM (%); for inhibition at 0.5 µM: 500 nM, read-out: Inhibition Rate at 500 nM (%)
Experimental: as §1, §2, §3

[5] = Table IL3, BCR-ABL inhibitor-based
[6] = Table IL2, BCR-ABL inhibitor-based
[7] = Table IL1, BCR-ABL inhibitor-based

Cc1nc(Nc2ncc(C(=O)Nc3c(C)cccc3Cl)s2)cc(N2CCN(CCO)CC2)n1 [Dasatinib, reference compound]
inhibition at 0.01 µM [1, 5]: 10 to 15%
inhibition at 0.5 µM [1, 5]: 15 to 20%
inhibition at 0.01 µM [2, 6]: 10 to 15%
inhibition at 0.5 µM [2, 6]: 40 to 50%
inhibition at 0.01 µM [3, 7]: 0 to 5%
inhibition at 0.5 µM [3, 7]: 15 to 20%

N#Cc1ccc(O[C@H]2CC[C@H](NC(=O)c3ccc(N4CCC(CN5CCN(c6cc(F)c7c(c6)C(=O)N(N6CCC(=O)NC6=O)C7=O)CC5)CC4)nn3)CC2)cc1Cl [GT-05233, N-((1r,4r)-4-(3-chloro-4-cyanophenoxy)cyclohexyl)-6-(4-((4-(2-(2,4-dioxotetrahydropyrimidin-1(2H)-yl)-7-fluoro-1,3-dioxoisoindolin-5-yl)piperazin-1-yl)methyl)piperidin-1-yl)pyridazine-3-carboxamide]
inhibition at 0.01 µM ([1]; Table IF2, AR inhibitor-based): 15 to 20%
inhibition at 0.5 µM ([1]; Table IF2, AR inhibitor-based): 20 to 30%

CNC(=O)c1ccccc1Nc1cc(Nc2cc(C)c(C3CCN(Cc4ccc5c(c4)CN(N4CCC(=O)NC4=O)C5=O)CC3)cc2OC(C)C)ncc1C(F)(F)F [GT-07663, 2-((2-((4-(1-((2-(2,4-dioxotetrahydropyrimidin-1(2H)-yl)-1-oxoisoindolin-5-yl)methyl)piperidin-4-yl)-2-isopropoxy-5-methylphenyl)amino)-5-(trifluoromethyl)pyridin-4-yl)amino)-N-methylbenzamide]
inhibition at 0.01 µM ([3]; Table IG1, FAK inhibitor-based): 5 to 10%
inhibition at 0.5 µM ([3]; Table IG1, FAK inhibitor-based): 40 to 60%

CNC(=O)c1ccccc1Nc1cc(Nc2cc(C)c(C3CCN(Cc4ccc5c(c4)C(=O)N(N4CCC(=O)NC4=O)C5=O)CC3)cc2OC(C)C)ncc1C(F)(F)F [GT-07664, 2-((2-((4-(1-((2-(2,4-dioxotetrahydropyrimidin-1(2H)-yl)-1,3-dioxoisoindolin-5-yl)methyl)piperidin-4-yl)-2-isopropoxy-5-methylphenyl)amino)-5-(trifluoromethyl)pyridin-4-yl)amino)-N-methylbenzamide]
inhibition at 0.01 µM ([3]; Table IG1, FAK inhibitor-based): 20 to 30%
inhibition at 0.5 µM ([3]; Table IG1, FAK inhibitor-based): 40 to 60%

O=C1CCN(N2C(=O)c3ccc(CN4CCC(N5CCN(c6ncc(C(=O)Nc7ccc(OC(F)(F)Cl)cc7)cc6-c6cc[nH]n6)CC5)CC4)cc3C2=O)C(=O)N1 [GT-08225, N-(4-(chlorodifluoromethoxy)phenyl)-6-(4-(1-((2-(2,4-dioxotetrahydropyrimidin-1(2H)-yl)-1,3-dioxoisoindolin-5-yl)methyl)piperidin-4-yl)piperazin-1-yl)-5-(1H-pyrazol-3-yl)nicotinamide]
inhibition at 0.01 µM [1, 5]: 10 to 15%
inhibition at 0.5 µM [1, 5]: 30 to 40%

O=C1CCN(N2Cc3cc(CN4CCN(C5CCN(c6ncc(C(=O)Nc7ccc(OC(F)(F)Cl)cc7)cc6-c6cc[nH]n6)CC5)CC4)ccc3C2=O)C(=O)N1 [GT-08226, N-(4-(chlorodifluoromethoxy)phenyl)-6-(4-(4-((2-(2,4-dioxotetrahydropyrimidin-1(2H)-yl)-1-oxoisoindolin-5-yl)methyl)piperazin-1-yl)piperidin-1-yl)-5-(1H-pyrazol-3-yl)nicotinamide]
inhibition at 0.01 µM [1, 5]: 5 to 10%
inhibition at 0.5 µM [1, 5]: 30 to 40%

O=C1CCN(N2C(=O)c3ccc(CN4CCN(C5CCN(c6ncc(C(=O)Nc7ccc(OC(F)(F)Cl)cc7)cc6-c6cc[nH]n6)CC5)CC4)cc3C2=O)C(=O)N1 [GT-08227, N-(4-(chlorodifluoromethoxy)phenyl)-6-(4-(4-((2-(2,4-dioxotetrahydropyrimidin-1(2H)-yl)-1,3-dioxoisoindolin-5-yl)methyl)piperazin-1-yl)piperidin-1-yl)-5-(1H-pyrazol-3-yl)nicotinamide]
inhibition at 0.01 µM [3, 7]: 20 to 30%
inhibition at 0.5 µM [3, 7]: 20 to 30%

CN(c1cccc(CNc2nc(Nc3ccc(N4CCN(CC5CCN(c6ccc7c(c6)C(=O)N(N6CCC(=O)NC6=O)C7=O)CC5)CC4)cc3)ncc2C(F)(F)F)c1)S(C)(=O)=O [GT-08246, N-(3-(((2-((4-(4-((1-(2-(2,4-dioxotetrahydropyrimidin-1(2H)-yl)-1,3-dioxoisoindolin-5-yl)piperidin-4-yl)methyl)piperazin-1-yl)phenyl)amino)-5-(trifluoromethyl)pyrimidin-4-yl)amino)methyl)phenyl)-N-methylmethanesulfonamide]
inhibition at 0.01 µM ([3]; Table IG1, FAK inhibitor-based): 30 to 40%
inhibition at 0.5 µM ([3]; Table IG1, FAK inhibitor-based): 30 to 40%

C[C@@H]1CNC(=O)c2cc3ccc(C(=O)Nc4cnn(Cc5ccc(N6CCC(N7CCN(CC8CCN(c9ccc%10c(c9)C(=O)N(N9CCC(=O)NC9=O)C%10=O)CC8)CC7)CC6)cc5)c4)nc3n21 [GT-08343, (R)—N-(1-(4-(4-(4-((1-(2-(2,4-dioxotetrahydropyrimidin-1(2H)-yl)-1,3-dioxoisoindolin-5-yl)piperidin-4-yl)methyl)piperazin-1-yl)piperidin-1-yl)benzyl)-1H-pyrazol-4-yl)-9-methyl-6-oxo-6,7,8,9-tetrahydropyrido[3′,2′: 4,5]pyrrolo[1,2-a]pyrazine-2-carboxamide]
inhibition at 0.01 µM ([4]; Table IN2): 20 to 30%
inhibition at 0.01 µM ([4]; Table IN3): 30 to 40%
inhibition at 0.5 µM ([4]; Table IN2): 30 to 50%
inhibition at 0.5 µM ([4]; Table IN3): 60 to 70%

Cc1ccc(C(=O)Nc2ccc(N3CCN(CC4CCN(c5ccc6c(c5)C(=O)N(N5CCC(=O)NC5=O)C6=O)CC4)CC3)c(C(F)(F)F)c2)cc1C#Cc1cnc2cccnn12 [GT-08354, N-(4-(4-((1-(2-(2,4-dioxotetrahydropyrimidin-1(2H)-yl)-1,3-dioxoisoindolin-5-yl)piperidin-4-yl)methyl)piperazin-1-yl)-3-(trifluoromethyl)phenyl)-3-(imidazo[1,2-b]pyridazin-3-ylethynyl)-4-methylbenzamide]
inhibition at 0.01 µM [3, 7]: 15 to 20%
inhibition at 0.5 µM [3, 7]: 20 to 30%

O=C1CCN(N2C(=O)c3ccc(CN4CCN(c5ccc(-c6ccc7c8cnccc8n(CC(F)(F)F)c7c6)cn5)CC4)cc3C2=O)C(=O)N1 [GT-08544, 2-(2,4-dioxotetrahydropyrimidin-1(2H)-yl)-5-((4-(5-(5-(2,2,2-trifluoroethyl)-5H-pyrido[4,3-b]indol-7-yl)pyridin-2-yl)piperazin-1-yl)methyl)isoindoline-1,3-dione]
inhibition at 0.01 µM ([3]; Table IJ1, Tau inhibitor-based): 30 to 40%
inhibition at 0.5 µM ([3]; Table IJ1, Tau inhibitor-based): 40 to 50%

Cc1cc(-c2ccc3c4cnccc4n(C)c3c2)cnc1N1CCN(CC2CCN(c3ccc4c(c3)C(=O)N(N3CCC(=O)NC3=O)C4=O)CC2)CC1 [GT-08555, 2-(2,4-dioxotetrahydropyrimidin-1(2H)-yl)-5-(4-((4-(3-methyl-5-(5-methyl-5H-pyrido[4,3-b]indol-7-yl)pyridin-2-yl)piperazin-1-yl)methyl)piperidin-1-yl)isoindoline-1,3-dione]
inhibition at 0.01 µM ([2]; Table IJ2, Tau inhibitor-based): 30 to 40%
inhibition at 0.5 µM ([2]; Table IJ2, Tau inhibitor-based): 70 to 80%
inhibition at 0.01 µM ([3]; Table IJ1, Tau inhibitor-based): 30 to 40%
inhibition at 0.5 µM ([3]; Table IJ1, Tau inhibitor-based): 60 to 70%

Cn1c2ccncc2c2ccc(-c3cnc(N4CCN(CC5CCN(c6cccc7c6C(=O)N(N6CCC(=O)NC6=O)C7=O)CC5)CC4)c(C(F)(F)F)c3)cc21 [GT-08561, 2-(2,4-dioxotetrahydropyrimidin-1(2H)-yl)-4-(4-((4-(5-(5-methyl-5H-pyrido[4,3-b]indol-7-yl)-3-(trifluoromethyl)pyridin-2-yl)piperazin-1-yl)methyl)piperidin-1-yl)isoindoline-1,3-dione]
inhibition at 0.01 µM ([2]; Table IJ2, Tau inhibitor-based): 0 to 5%
inhibition at 0.5 µM ([2]; Table IJ2, Tau inhibitor-based): 50 to 60%
